Test system: cancer of the prostate
Assay: Case reports: treatment of patients with cancer of the prostate (PSA level, bone scans, X-rays, rectal examination)
Assay type: in vivo, human
Procedure: Instead, a course of radiation of the involved ribs and lumbar-sacral vertebrae was carried out to reduce pain, following which the patient was referred for further treatment.
They were treated with flutamide plus leuprolide for eight weeks followed by implantation of a radioactive needle into the tumor mass. […] At this point, drug therapy was terminated and local radiation was applied to the lumbar spine to reduce pain. […] Two acquaintances in their sixties had been routinely monitoring their PSA levels every six to twelve months because of their age. […] Both were started immediately on low-dose naltrexone 3 mg/day q.h.s while they considered the desirability of undergoing standard therapies for prostate cancer. This exploration took a period of three months for one and four months for the other with both eventually electing to undergo treatment with flutamide, a testosterone blocking agent.

O=C1CC[C@@]2(O)[C@H]3Cc4ccc(O)c5c4[C@@]2(CCN3CC2CC2)[C@H]1O5 [naltrexone, Naltrexone]
Symptom-free follow-up with normal bone scans and very low PSA readings (Example 1: continued naltrexone treatment): 18 months | Tumor on bone scans (Example 1: naltrexone 3 mg/day q.h.s., after four months): disappeared | PSA level (Example 1: person, bone metastases, after failed drug therapy and radiation, naltrexone 3 mg/day q.h.s., after four months): less than 1.0 | X-rays of the spine (Example 2: naltrexone 3 mg day q.h.s., over five months): became normal | PSA reading (Example 2: person, lumbar vertebrae lesions, after failed drug therapy and local radiation, naltrexone 3 mg day q.h.s., over five months): zero | Tumor shrinkage (Examples 3 and 4: two men, untreated adenocarcinoma of the prostate, naltrexone 3 mg/day q.h.s. alone for three / four months): substantial shrinkage, by more than one-half

Reference: patent US6384044B1, “Method of treating cancer of the prostate” (priority 1999, dated 2002)
